Measurements published in patent US20090209491A1, “Lactams as conformationally constrained peptidomimetic inhibitors” (Trustees of Tufts College, priority 2004, published 2009).

Molecular target: DPIV (Homo sapiens, UniProt P27487)
Test: DPIV Inhibition Assay
Assay type: biochemical
Conditions: pH 8; substrate L-alanyl-L-proline-para-nitroanilide; inhibitor stood in pH 8 buffer overnight; absorbance 410 nm
Protocol: The inhibitor solution was prepared by dissolving 3-5 mg of inhibitor in pH 2 solution (0.01 N HCl), such that the concentration of the solution was equal to 1 mg/10 μL. A 10 μL sample of this solution was then added to 990 μL of pH 8 buffer (0.1 M HEPES, 0.14 M NaCl), and the solution was allowed to stand at room temperature overnight.
The enzyme solution was prepared by diluting 20 μL of DPIV (concentration 2.5 μM) into 40 mL of pH 8 buffer.
The substrate solution was prepared by dissolving 2.0 mg of L-alanyl-L-proline-para-nitroanilide into 20 mL of pH 8 buffer.
250 μL of enzyme solution was added to well #B1 to #H1, #A2 to #H2, and #A3 to #H3 of a 96 well plate, while well #Al received 250 μL of pH 8 buffer instead of enzyme solution. 90 μL of pH 8 buffer was then added to column 5 (from well #A5 to #H5).
A 1:10 dilution was then performed by adding inhibitor solution to #A5 and the solution was mixed well before transferring 10 μL of this solution from #A5 to #B5. The solution in #B5 was then mixed well before transferring 10 μL of this solution from #B5 to #C5. The solution in #C5 was then mixed well before transferring 10 μL of this solution from #C5 to #D5. The solution in #D5 was then mixed well before transferring 10 μL of this solution from #D5 to #E5. The solution in #E5 was then mixed well before transferring 10 μL of this solution from #E5 to #F5. The solution in #F5 was then mixed well before transferring 10 μL of this solution from #F5 to #G5. The solution in #G5 was then mixed well before transferring 10 μL of this solution from #G5 to #H5.
A 30 μL aliquot was then transferred from #H5 to #H3 for row H, and the contents were mixed well. The analogous procedure was repeated for rows G, F, E, D, C, B, and A sequentially. The plate was then shaken on a plate shaker for 5 minutes before allowing the plate to incubate at room temperature for an additional 5 minutes.
Once the plate had been allowed to incubate, 30 μL of substrate was added to each well except well #A1. The plate was then placed on a plate shaker for 5 minutes before allowing the plate to incubate at room temperature for 25 minutes. The absorbance was then immediately read at a wavelength of 410 nm.

Chain of DPIV (P27487 whole entry): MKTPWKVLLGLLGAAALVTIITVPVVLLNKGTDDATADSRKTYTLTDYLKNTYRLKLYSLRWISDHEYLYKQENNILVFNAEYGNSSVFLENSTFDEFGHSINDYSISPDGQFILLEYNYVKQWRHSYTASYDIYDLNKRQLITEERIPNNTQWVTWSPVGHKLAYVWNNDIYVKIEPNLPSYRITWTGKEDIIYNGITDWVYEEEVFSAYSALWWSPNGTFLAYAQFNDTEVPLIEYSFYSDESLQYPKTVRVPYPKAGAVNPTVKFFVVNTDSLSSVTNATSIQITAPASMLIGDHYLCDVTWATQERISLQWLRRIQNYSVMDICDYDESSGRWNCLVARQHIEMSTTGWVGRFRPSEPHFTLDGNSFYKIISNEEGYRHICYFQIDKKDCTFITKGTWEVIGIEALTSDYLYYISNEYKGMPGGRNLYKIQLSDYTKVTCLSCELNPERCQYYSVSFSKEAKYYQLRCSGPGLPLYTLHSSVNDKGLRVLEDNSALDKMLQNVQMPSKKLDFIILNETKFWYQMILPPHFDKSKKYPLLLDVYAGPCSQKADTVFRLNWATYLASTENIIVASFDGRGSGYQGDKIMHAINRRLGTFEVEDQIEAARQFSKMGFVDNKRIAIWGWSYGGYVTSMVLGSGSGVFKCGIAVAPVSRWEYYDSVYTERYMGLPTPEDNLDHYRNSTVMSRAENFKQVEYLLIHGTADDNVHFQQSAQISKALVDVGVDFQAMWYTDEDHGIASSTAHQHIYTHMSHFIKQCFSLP

Compound	IC50 [nM]
C[C@@H](B(O)O)N1CC[C@](N)(CC(=O)O)C1=O [K]	36
C[C@@H](B(O)O)N1CC[C@](N)(Cc2cccc3ccccc23)C1=O [P]	2.1
C[C@@H](B(O)O)N1CC[C@](C)(N)C1=O [F]	69000
CC[C@H](B(O)O)N1CC[C@](N)(CC)C1=O [Compound I]	25
CN[C@]1(Cc2ccccc2)CCN([C@@H](C)B(O)O)C1=O [O]	630
CC(B(O)O)N1CCC(C)(N)C1=O (stereo not drawn) [E]	23
C[C@@H](B(O)O)N1CC[C@]2(CCCN2)C1=O [Q]	9.9
CC[C@@H](B(O)O)N1CC[C@](N)(Cc2ccccc2)C1=O [N]	3
CC(B(O)O)N1CCC(N)C1=O (stereo not drawn) [D]	34
CCCC[C@@]1(N)CCN([C@@H](C)B(O)O)C1=O [J]	1.9
C[C@@H](B(O)O)N1CC[C@@](C)(N)C1=O [G]	6.7
C[C@@H](B(O)O)N1CC[C@](N)(Cc2ccccc2)C1=O [M]	2.6
C[C@H](C#N)N1CCC(N)C1=O (stereo partly drawn) [A]	11000
C[C@@H](B(O)O)N1CCC(N)C1=O (stereo partly drawn) [B]	40
C[C@H](B(O)O)N1CCC(N)C1=O (stereo partly drawn) [C]	340
